For one assay, the target named is T1, ACKR3 (Homo sapiens, UniProt P25106).
T1 construct: expressed in transfected cells; host or cells: HEK293T
Kind of assay: β-arrestin-2 recruitment to ACKR3, nanoluciferase complementation (NanoBiT) in HEK cells. Type of assay: cell-based. The following applies: for activity toward ACKR3 (β-arrestin-2 recruitment), in words: concentration range up to 9 μM. The procedure:
(§1) Ligand-induced recruitment of β-arrestin, miniGi or miniGq proteins (engineered GTPase domain of Gα subunit)[46],[47] to the receptors was monitored using NanoBiT technology (Promega), as previously described.[27],[48] HEK293T cells (5 × 10^6 cells) were seeded in 10 cm dishes, and 24 h later, the cells were cotransfected with pNBe plasmids encoding the receptor C-terminally fused to SmBiT and β-arrestin, miniGi, or miniGq N-terminally fused to LgBiT. After 24 h, the cells were detached and incubated for 25 min at 37 °C with Nano-Glo Live Cell substrate diluted 200-fold, distributed into white 96-well plates (1 × 10^5 cells/well), and treated with the indicated concentrations of peptides. Luminescence was recorded during 20 min with a Mithras LB940 luminometer (Berthold Technologies). For the concentration–response curves, the signal recorded with a saturating concentration of full agonist for each receptor was set as 100%. For receptor screening experiments, results were expressed as fold vehicle, and an agonist chemokine (100 nM) listed in the IUPHAR repository of chemokine receptor ligands was included as a positive control for each receptor.
(§2) Concentration–response curves were fitted to the four-parameter Hill equation using an iterative, least-squares method (GraphPad Prism version 8.0.1). All curves were fitted to data points generated from the mean of at least three independent experiments. Statistical tests, i.e., ordinary one-way ANOVA and post hoc analysis were performed with GraphPad Prism 8.0.1. The p-values are indicated as follows: *, p < 0.05; **, p < 0.01; ***, p < 0.001; and ****, p < 0.0001.
Background: Activated receptors often draw arrestin, which recruitment assays turn into a signal.

The next assay addresses T2, MrgX2 (Homo sapiens, UniProt Q96LB1).
T2 construct: expressed in transfected cells; host or cells: HEK293T
T2 sequence (Q96LB1 1-330): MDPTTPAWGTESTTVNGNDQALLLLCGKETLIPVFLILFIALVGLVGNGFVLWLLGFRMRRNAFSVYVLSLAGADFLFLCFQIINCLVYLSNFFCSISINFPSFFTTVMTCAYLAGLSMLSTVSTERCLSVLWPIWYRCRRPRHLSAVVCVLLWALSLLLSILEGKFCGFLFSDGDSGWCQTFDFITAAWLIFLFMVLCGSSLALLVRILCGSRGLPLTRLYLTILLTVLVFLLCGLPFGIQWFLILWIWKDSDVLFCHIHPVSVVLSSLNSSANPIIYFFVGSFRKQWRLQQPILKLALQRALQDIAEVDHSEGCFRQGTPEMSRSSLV
In words: β-arrestin-2 recruitment to MrgX2, NanoBiT in HEK cells. Format: cell-based. The method, then:
as §1, §2

In a further assay the target is T3, GPR182 (Homo sapiens, UniProt O15218).
T3 construct: expressed in transfected cells; host or cells: HEK293T
In words: β-arrestin-2 recruitment to GPR182 (NanoBiT screen). Type of assay: cell-based. The settings on record: peptides 3 μM. The method, then: as §1

In the next assay the test system is HEK-ACKR3 cells. Kind of assay: PAMP-12-FAM uptake by HEK-ACKR3 cells, imaging flow cytometry. Type of assay: cell-based, human. The settings on record: chemokine 200 nM, 15 min preincubation; PAMP-12-FAM 3 μM, 45 min at 37 °C. The procedure: HEK293T or HEK-ACKR3 cells were harvested in Opti-MEM and distributed into 96-well plates (3 × 10^5 cells/well). […] At 24 h post-transfection, the cells were harvested and treated as described above. Dead cells were excluded using Zombie NIR viability dye (BioLegend). Images of 1 × 10^4 in-focus, living single cells were acquired with an ImageStream Mark II imaging flow cytometer (Amnis) equipped with an extended depth of field (EDF) module and using 60× magnification. Samples were analyzed using Ideas6.2 software. The number of spots per cell was determined using a mask-based software wizard.
(In general: In flow cytometry, cells or beads pass a laser one at a time.)

[1] abbreviates: pEC50 ± S.E.M, β-arrestin-2 recruitment, ACKR3 (Supplementary Table 2), HEK cells, NanoBiT, three independent experiments.
The mark [2] stands for this setting: EC50, β-arrestin-2 recruitment toward MrgX2, HEK cells, NanoBiT, normalised to full agonist, three independent experiments.
Setting [3] is: pEC50 ± S.E.M, β-arrestin recruitment, MrgX2 (Supplementary Table 1), HEK cells, NanoBiT, NA: no activity detected in the concentration range tested.

Where two headings read alike, the source gives them in different places. Where no end group is shown, it is not given here. Some results are limits rather than exact numbers.

T3 sequence (O15218 whole entry, species assumed): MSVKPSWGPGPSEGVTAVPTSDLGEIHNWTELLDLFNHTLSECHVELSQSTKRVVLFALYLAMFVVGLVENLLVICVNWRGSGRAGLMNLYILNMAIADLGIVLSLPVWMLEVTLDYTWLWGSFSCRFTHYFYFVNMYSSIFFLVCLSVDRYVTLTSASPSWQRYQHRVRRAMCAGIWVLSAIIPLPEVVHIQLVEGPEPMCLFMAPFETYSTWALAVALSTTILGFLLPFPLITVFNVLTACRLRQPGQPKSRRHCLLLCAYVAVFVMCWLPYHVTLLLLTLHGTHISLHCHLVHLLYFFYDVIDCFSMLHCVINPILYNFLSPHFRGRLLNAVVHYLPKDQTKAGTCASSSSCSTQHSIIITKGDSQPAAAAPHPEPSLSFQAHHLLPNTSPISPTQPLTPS
T1 sequence (P25106 whole entry): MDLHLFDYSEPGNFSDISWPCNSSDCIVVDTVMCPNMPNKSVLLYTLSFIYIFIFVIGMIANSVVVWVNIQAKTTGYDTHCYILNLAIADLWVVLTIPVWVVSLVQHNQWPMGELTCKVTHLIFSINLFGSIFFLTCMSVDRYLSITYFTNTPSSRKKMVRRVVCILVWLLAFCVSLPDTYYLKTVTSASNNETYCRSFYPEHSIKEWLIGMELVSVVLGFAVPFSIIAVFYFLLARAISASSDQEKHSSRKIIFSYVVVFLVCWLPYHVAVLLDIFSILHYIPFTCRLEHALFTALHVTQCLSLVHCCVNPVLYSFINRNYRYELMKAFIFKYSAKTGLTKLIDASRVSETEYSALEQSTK

The EC50 is the concentration giving half of the maximal effect. The low end stands for an effect from little substance, the high end for a need for much substance. `CC(C)C[C@H](NC(=O)[C@H](C)NC(=O)[C@H](Cc1c[nH]c2ccccc12)NC(=O)[C@H](CCCCN)NC(=O)[C@H](CC(N)=O)NC(=O)[C@H](Cc1c[nH]c2ccccc12)NC(=O)[C@H](CCCCN)NC(=O)[C@H](CCCCN)NC(=O)[C@H](CCCNC(=N)N)NC(=O)[C@@H](N)Cc1ccccc1)C(=O)N[C@@H](CO)C(=O)N[C@@H](CCCNC(=N)N)C(=O)O`: the EC50 was 1580 nM on ACKR3 (setting [1]) and 2290 nM at MrgX2. As to `CC[C@H](C)[C@H](NC(=O)[C@H](CCC(N)=O)NC(=O)[C@H](Cc1c[nH]cn1)NC(=O)[C@H](C)NC(=O)[C@H](CC(C)C)NC(=O)[C@H](CCCCN)NC(=O)[C@H](CCC(N)=O)NC(=O)[C@@H](NC(=O)[C@@H](NC(=O)[C@@H]1CSSC[C@H](NC(=O)CNC(=O)[C@H](Cc2ccccc2)NC(=O)[C@H](CO)NC(=O)[C@H](CCCNC(=N)N)NC(=O)[C@H](CC(C)C)NC(=O)CNC(=O)[C@H](CCC(N)=O)NC(=O)[C@H](Cc2ccccc2)NC(=O)[C@H](CC(N)=O)NC(=O)[C@H](CC(N)=O)NC(=O)[C@H](CCSC)NC(=O)[C@H](CO)NC(=O)[C@H](CCC(N)=O)NC(=O)[C@H](CCCNC(=N)N)NC(=O)[C@@H](N)Cc2ccc(O)cc2)C(=O)N[C@@H](CCCNC(=N)N)C(=O)N[C@@H](Cc2ccccc2)C(=O)NCC(=O)N[C@@H]([C@@H](C)O)C(=O)N1)[C@@H](C)O)C(C)C)C(=O)N[C@@H](Cc1ccc(O)cc1)C(=O)N[C@@H](CCC(N)=O)C(=O)N[C@@H](Cc1ccccc1)C(=O)N[C@H](C(=O)N[C@@H](CC(=O)O)C(=O)N[C@@H](CCCCN)C(=O)N[C@@H](CC(=O)O)C(=O)N[C@@H](CCCCN)C(=O)N[C@@H](CC(=O)O)C(=O)N[C@@H](CC(N)=O)C(=O)N[C@H](C(=O)N[C@@H](C)C(=O)N1CCC[C@H]1C(=O)N[C@@H](CCCNC(=N)N)C(=O)N[C@@H](CO)C(=O)N[C@@H](CCCCN)C(=O)N[C@H](C(=O)N[C@@H](CO)C(=O)N1CCC[C@H]1C(=O)N[C@@H](CCC(N)=O)C(=O)NCC(=O)N[C@@H](Cc1ccc(O)cc1)C(N)=O)[C@@H](C)CC)C(C)C)[C@@H](C)O` [ADM], the “activity toward GPR182, in words” value at GPR182 is listed as “no activity”. In the case of `CC(C)C[C@H](NC(=O)[C@H](C)NC(=O)[C@H](Cc1c[nH]c2ccccc12)NC(=O)[C@H](CCCCN)NC(=O)[C@H](CC(N)=O)NC(=O)[C@H](Cc1c[nH]c2ccccc12)NC(=O)[C@H](CCCCN)NC(=O)[C@H](CCCCN)NC(=O)[C@H](CCCNC(=N)N)NC(=O)[C@@H](N)Cc1ccccc1)C(=O)N[C@@H](CO)C(=O)N[C@@H](CCCNC(=N)N)C(N)=O` [PAMP-12], the results for the EC50 at MrgX2 (setting [2]) and on MrgX2 (setting [3]) were 785 nM and 776 nM, respectively. At GPR182, the “activity toward GPR182, in words” value is reported as “no activity”. For the molecule `CSCC[C@H](NC(=O)[C@H](CC(C)C)NC(=O)CNC(=O)[C@H](Cc1ccccc1)NC(=O)[C@H](Cc1ccccc1)NC(=O)[C@H](CCC(N)=O)NC(=O)[C@H](CCC(N)=O)NC(=O)[C@@H]1CCCN1C(=O)[C@H](CCCCN)NC(=O)[C@@H]1CCCN1C(=O)[C@@H](N)CCCNC(=N)N)C(N)=O` [substance P, reference compound], the “activity toward ACKR3 (β-arrestin-2 recruitment), in words” value (shortened to “activity toward ACKR3”) on ACKR3 (HEK cells, NanoBiT) was “no activity”. For AFRKKWNKWALSR-NH2, the EC50 at ACKR3 (setting [1]) is 2000 nM; at MrgX2, 891 nM.

Regarding “AMY: CGRP family peptide (KCNTATCATQRLANFLVHSSNNFGAILSSTNVGSNTY; not fully specified (C-terminus, bridges); cysteine pairing not given here; UniProt P10997 34-70, looked up) [reference compound]”, in the assay with ACKR3 (HEK cells, NanoBiT), the “activity toward ACKR3” value is “No activity”.

For the molecule ARKKWNKWALSR-NH2, the EC50 on ACKR3 (setting [1]) was 46800 nM; on MrgX2, 933 nM. As to ARLDVASEFRKKWNKWA [PAMP1-17], the EC50 at ACKR3 (setting [1]) was 331000 nM; on MrgX2 it was 95500 nM.

With ARLDVASEFRKKWNKWALSR-NH2 [PAMP], the EC50 is more than 10000 nM on ACKR3, 6200 nM at MrgX2 (setting [2]) and 6170 nM on MrgX2 (setting [3]). The “activity toward GPR182, in words” value on GPR182 is recorded as “no activity”.

Regarding “CT: CGRP family peptide [reference compound]”, the “activity toward ACKR3” value with ACKR3 (HEK cells, NanoBiT) is “No activity”. Regarding “CXCL12: chemokine, full agonist of ACKR3; purchased from PeproTech”, the “effect of chemokine preincubation on PAMP-12-FAM accumulation in HEK-ACKR3 cells, in words” value in the assay on HEK-ACKR3 cells is recorded as “reduced PAMP-12 accumulation to background levels”.

As for DVASEFRKKWNKWALSR-NH2 [PAMP 4-20], the figures for the EC50 on ACKR3 (setting [1]) and on MrgX2 were 178000 nM and 3310 nM, respectively. As for FAKKWNKWALSR-NH2, the values for the EC50 at ACKR3 (setting [1]) and at MrgX2 were 9330 nM and 1000 nM, respectively.

In the case of FKKKWNKWALSR-NH2, the results for the EC50 on ACKR3 (setting [1]) and at MrgX2 were 3310 nM and 1450 nM, respectively. FRAKWNKWALSR-NH2: the EC50 was 1350 nM on ACKR3 (setting [1]) and 977 nM at MrgX2. With FRKAWNKWALSR-NH2, the EC50 at ACKR3 (setting [1]) was 269 nM; on MrgX2, 661 nM. Consider FRKKANKWALSR-NH2, for which the figures for the EC50 at ACKR3 (setting [1]) and on MrgX2 were 7590 nM and 2000 nM, respectively. On to FRKKFNKWALSR-NH2, for which the EC50 on ACKR3 (setting [1]) is 4270 nM; at MrgX2, 589 nM. With FRKKWAKWALSR-NH2, the EC50 is 832 nM at ACKR3 (setting [1]) and 479 nM on MrgX2. In the same order, the values of FRKKWDKWALSR-NH2 are 589 nM and 479 nM.

In the case of FRKKWNAWALSR-NH2, the EC50 on ACKR3 (setting [1]) was 1260 nM; at MrgX2, 550 nM.

Values taken from PMC8033753, “Proadrenomedullin N-Terminal 20 Peptides (PAMPs) Are Agonists of the Chemokine Scavenger Receptor ACKR3/CXCR7” (ACS Pharmacology & Translational Science, 2021).
